Key:
[1] = tested on: triple negative breast MDA-MB-231; test: MTT toxicity assay, MDA-MB-231; settings: read-out: IC50 MDA-MB-231, 24 h incubation, mean ± SD (n = 4)
Description: Cytotoxic activity of the compounds was determined in some human cancer cell lines: leukemia Jurkat-T, lung A549, prostate DU-145, pancreas MiaPaca2, and triple negative breast MDA-MB-231, in comparison to cisplatin.
(§1) A549 (lung carcinoma), MiaPaca2 (pancreatic carcinoma), MDA-MB-231 (Triple negative breast carcinoma) and 293T (non-tumoral embryonic kidney cells) were cultured in DMEM medium supplemented with 10% FCS, L-glutamine and penicillin/streptomycin. Media for A549 cells were also supplemented with 2.2 g/l Na2CO3, 100 μg/ml pyruvate and 5 ml non-essential amino acids (Invitrogen). All these media will be referred as ‘complete medium’ hereinafter. Cell cultures were maintained in a humidified atmosphere of 95% air/5% CO2 at 37° C.
(§2) For toxicity assays cells (5×10^4 for Jurkat cells and 10^4 for adherent cell lines) were seeded in flat-bottom 96-well plates (100 μl/well) in complete medium. Adherent cells were allowed to attach for 24 h prior to addition of cisplatin or tested compounds. Compounds were added at different concentrations in triplicate. Cells were incubated with cisplatin or compounds for 24 h and then cell proliferation was determined by a modification of the MTT-reduction method. […] Finally, formazan crystal was dissolved by adding 100 μl/well ^iPrOH (0.05 M HCl) and gently shaking. The optical density was measured at 570 nm using a 96-well multiscanner autoreader (ELISA). In some experiments total cell number and cell viability were determined by the Trypan-blue exclusion test.

prostate DU-145 = test: MTT toxicity assay, DU-145; type: cell-based, human; settings: 24 h incubation, mean ± SD (n = 4)
Description: (§3) Compounds were added at different concentrations in triplicate.

pancreas MiaPaca2 = test: MTT toxicity assay, MiaPaca2; type: cell-based, human; settings: 24 h incubation, mean ± SD (n = 4)
Description: as §3

lung A549 = test: MTT toxicity assay, A549; type: cell-based, human; settings: 24 h incubation, mean ± SD (n = 4)
Description: as §3

leukemia Jurkat-T = test: MTT toxicity assay, Jurkat; type: cell-based, human; settings: 24 h incubation, mean ± SD (n = 4)
Description: as §3

[2] = tested on: human renal proximal tubular cells (RPTC); test: XTT assay for RPTC cells; type: cell-based; settings: XTT assay 24 hours
Description: Renal proximal tubular cells in primary culture have been described as an in vitro model to study nephrotoxicity.
The human Renal Proximal Tubule Cells (RPTC) a non-tumoral human kidney epithelial cell line (obtained from Lifeline Cell Technology, Frederick, Md., USA) were cultured in Lifeline's RenaLife Medium containing RenaLife LifeFactors with 2.4 mM L-Glutamine, 5 Î¼ g/mL rh insulin, 1.0 Î¼M epinephrine, 10 nM triiodothyronine, 0.1 Î¼ g/mL hydrocortisone hemisuccinate, 10 ng/mL rh EGF, 0.5% FBS and 5 Î¼ g/m transferrin PS (all from Lifeline Cell Technology), at 37° C. in a humidified atmosphere of 95% of air and 5% CO2 (University of Hawaii Cancer Center, Honolulu, Hi., USA). For evaluation of cell viability, cells were seeded at a concentration of 5×10^3 cells/well in 90 μl Lifeline's RenaLife complete medium into tissue culture grade 96-well flat bottom microplates (Thermo Scientific BioLite Microwell Plate, Fisher Scientific, Waltham, Mass., USA) and grown for 24 h. […] The optical density of each well (96-well plates) was quantified using EnVision Multilabel Plate Readers (Perkin Elmer, Waltham Mass., USA) at 450 nm wavelength to measure absorbance. The percentage of surviving cells was calculated from the ratio of absorbance of treated to untreated cells. […]

plasmid pBR322 DNA = test: Plasmid (pBR322) DNA electrophoresis (mobility shift assay); type: binding; settings: 37° C., twenty hours, Tris/HCl buffer, up to drug/DNA ratio 2.0
Description: For these experiments, cisplatin, all uncoordinated ligands, and the starting dimeric organometallic ruthenium (II) complex [Ru(η^6-p-cymene)Cl]2 were also measured as controls. Plasmid pBR322 presents two main forms, OC (open circular or relaxed) and CCC (covalently closed or supercoiled), which display different electrophoretic mobility. Changes in the electrophoretic mobility of any of the forms upon incubation of the plasmid with a compound are usually interpreted as evidence of interaction. Generally, a drug that induces unwinding of the CCC form will produce a retardation of the electrophoretic mobility, while coiling of the OC form will result in increased mobility.
10 μL aliquots of pBR322 plasmid DNA (20 μg/mL) in buffer (5 mM Tris/HCl, 50 mM NaClO4, pH=7.39) were incubated with different concentrations of the compounds (1-4, 8, 9, [(η^6-p-cymene)Ru(μ-Cl)Cl]2) (in the range 0.25 and 4.0 metal complex:DNAbp) at 37° C. for 20 h in the dark. Samples of free DNA and cisplatin-DNA were prepared as controls. After the incubation period, the samples were loaded onto the 1% agarose gel. The samples were separated by electrophoresis for 1.5 h at 80 V in Tris-acetate/EDTA buffer (TAE). Afterwards, the gel was stained for 30 min. with a solution of GelRed Nucleic Acid stain.

[3] = tested on: non-tumorigenic human embryonic kidney cells HEK293T; test: MTT toxicity assay, HEK-293T; type: cell-based; settings: 24 h incubation, mean ± SD (n = 4)
Description: In order to assess the compounds' selectivity for cancerous cells with respect to normal cell lines, the compounds were also screened for their antiproliferative effects on the non-tumorigenic human embryonic kidney cells HEK293T.
as §1, §2

Solubility = settings: 1:99 DMSO:H2O
[4] = Stability in solution by 31P and 1H NMR; air stability; type: physicochemical
Description: The stability of the water-soluble complexes was studied by ^31P {^1H} and ^1H NMR spectroscopy in D2O. […] However, as explained elsewhere in this specification, the biological activity of compound 2 is very fast (in 8 hours compound 2 induces 80% of apoptosis on Jurkat cells). Thus, without wishing to be bound to any particular theory, the observed biological activity is believed to mainly come from coordination compound 2 or its hydrolysis product.

[5] = biological target: Human serum albumin (HSA) (Homo sapiens, UniProt P02768); test: Interaction with HSA by fluorescence spectroscopy (Stern-Volmer); type: binding; settings: HSA 10 μM, phosphate buffer pH 7.4
Description: The fluorescence data was analyzed by the Stern-Volmer equation.
A solution of each compound (8 mM) in DMSO was prepared and ten aliquots of 2.5 μL were added successively to a solution of HSA (10 μM) in phosphate buffer (pH=7.4) to achieve final metal complex concentrations in the range 10-100 μM. The excitation wavelength was set to 295 nm, and the emission spectra of HSA samples were recorded at room temperature in the range of 300 to 450 nm. The fluorescence intensities of all the metal compounds, the buffer and the DMSO are negligible under these conditions. The fluorescence was measured 240 s. after each addition of compound solution. The data were analyzed using the classical Stern-Volmer equation F0/F=1+KSV[Q].

human cell lines = test: MTT toxicity assay, all tested human cell lines; type: cell-based; settings: 24 h incubation
Description: as §3

Jurkat cells = test: Cell death analysis (PS exposure, mitochondrial membrane potential, Hoechst) in Jurkat cells
Description: The mechanism of cell death induced by compound 2 and compound 3 was explored in Jurkat cells. Nuclei morphology after twenty-four hour incubation with 1 μM solution of compound 2 or compound 3 was analyzed by Hoechst staining. […] Other apoptotic parameters such as phosphatidylserine exposure and mitochondrial membrane potential dissipation were analyzed using fluorescent probes.
To determine whether caspase inhibition prevented or just delayed cell death, experiments were performed in which cells were treated with compound 2 or compound 3 for twenty-four hours in the presence of z-VAD-fmk and then washed and further cultured in fresh medium for twenty-four hours (FIG. 6). PS exposure was analyzed after the first twenty-four hours in the presence of compound+z-VAD-fmk and twenty-four hours after washing.
Apoptosis/necrosis hallmarks of cells treated with compounds 2 and 3 were analyzed by measuring mitochondrial membrane potential and/or exposure of phosphatidylserine. In some experiments the general caspase inhibitor z-VAD-fmk was added at 50 μM 1 h before compounds. For mitochondrial membrane potential determination cells (2.5×10^5 in 200 μl) after treatment with compounds were incubated at 37° C. for 15 min. in ABB (140 mM NaCl, 2.5 mM CaCl2, 10 mM Hepes/NaOH, pH 7.4) containing 60 mM tetramethylrhodamine ethyl ester (TMRE, Molecular Probes). Phosphatidylserine exposure was quantified by labeling cells with AnnexinV-PE or AnnexinV-DY636 (Invitrogen) after treatment with compounds. AnnexinV was added at a concentration of 0.5 μg/mL and cells were incubated at room temperature for 15 min. In all cases, cells were diluted to 1 ml with ABB to be analyzed by flow cytometry (FACScan, BD Bioscience, Spain).

CT DNA = test: DNA precipitation and quantification of ruthenium by ICP-MS; type: binding, calf; design: unit not given here
Description: In this experiment, 500 μM concentration DNA solutions were treated with 2 equiv of ruthenium compound 2 and compound 3 for twenty hours at 37° C. to promote DNA precipitation. The samples were then centrifuged, and the resulting pellets were analyzed for DNA and metal concentration.
Stock solutions of compounds 2 and 3 (4 mM in water) and CT DNA (11.56 mM in 5 mM Tris/HCl, 50 mM NaClO4, pH=7.39) were freshly prepared prior to use. 216 μl of DNA stock solution were diluted in 3.53 mL of buffer and 1.25 mL of compound stock solution were then added to achieve 5 mL final volume at concentrations of 500 μM in DNA and 1 mM in metal compound. Each sample was incubated at 37° C. for a period of 20 h, then cooled down to room temperature and centrifuged at 3000 rpm for 15 min. and at 4000 rpm for extra 40 min. The supernatant was separated and analyzed for CT DNA concentration by CD spectroscopy. The resulting pellet was washed twice with ice-cold ethanol (1 mL), centrifuged at RT for 1 min. at 4000 rpm, dried under high vacuum and analyzed for Ru content by ICP-MS. The total amount of DNA in each sample was 0.92 mg. Every experiment was run in duplicate.

[6] = Jurkat cells, general caspase inhibitor z-VAD-fmk

Human serum albumin (HSA), sequence (P02768 25-609): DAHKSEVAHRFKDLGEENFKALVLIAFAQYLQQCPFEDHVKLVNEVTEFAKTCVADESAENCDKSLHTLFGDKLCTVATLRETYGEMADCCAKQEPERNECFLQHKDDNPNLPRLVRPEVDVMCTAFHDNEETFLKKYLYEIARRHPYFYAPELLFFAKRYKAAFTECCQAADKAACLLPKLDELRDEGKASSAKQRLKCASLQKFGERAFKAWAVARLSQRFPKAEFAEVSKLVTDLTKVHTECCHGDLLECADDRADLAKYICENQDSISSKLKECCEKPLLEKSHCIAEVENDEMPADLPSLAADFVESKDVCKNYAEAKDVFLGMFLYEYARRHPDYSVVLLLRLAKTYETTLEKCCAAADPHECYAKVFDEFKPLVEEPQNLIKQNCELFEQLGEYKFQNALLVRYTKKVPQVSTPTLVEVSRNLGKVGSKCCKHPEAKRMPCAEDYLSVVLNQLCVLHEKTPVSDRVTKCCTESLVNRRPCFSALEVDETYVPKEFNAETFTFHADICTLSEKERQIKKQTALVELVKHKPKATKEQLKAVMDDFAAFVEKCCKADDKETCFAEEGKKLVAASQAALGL

`N.N.[Cl][Pt][Cl]` [Cisplatin, reference compound] gave an IC50 [1] of 131 ± 18 µM, an IC50 (prostate DU-145) of 112 ± 33 µM and an IC50 (pancreas MiaPaca2) of 76.5 ± 7.4 µM. For the same compound, the IC50 (lung A549) was 114 ± 9.1 µM, the IC50 (leukemia Jurkat-T) was 10.8 ± 1.2 µM and the IC50 [2] was 46.4 ± 2.46 µM. For the same compound, the “electrophoretic mobility of plasmid pBR322 DNA” value (from here on “electrophoretic mobility”) (plasmid pBR322 DNA) was “able to both increase and decrease the mobility of the OC and the CCC forms” and the IC50 [3] was 69 ± 6.7 µM.
In the case of `Cc1ccc(C(C)C)cc1.O=C(N=P12CN3CN(CN(C3)C1)C2)c1cccc[c]1[Ru][Cl]` [Compound 9, [(η^6-p-cymene)Ru{(PTA═N—CO-2-C6H4)-κ-C,N}Cl]], the IC50 [1] is reported as 75.4 ± 9.8 µM, the IC50 (prostate DU-145) is reported as 126 ± 28 µM and the IC50 (pancreas MiaPaca2) is reported as 54.5 ± 16 µM. The “solubility in DMSO:H2O mixtures” value (Solubility) was “soluble in mixtures 1:99 DMSO:H2O in micromolar concentrations”, the IC50 (lung A549) was greater than 125 µM and the IC50 (leukemia Jurkat-T) was 17.7 ± 7.5 µM. For the same compound, the IC50 [3] was 142 ± 13.1 µM.
With “[(η^6-p-cymene)Ru((Ph3P═N—CO-2-C6H4)-κ-C,N)Cl] [Compound 8]” the IC50 [1] was 7.1 ± 0.11 µM, the “stability in d^6-DMSO solution” value [4] was “stable for weeks” and the IC50 (prostate DU-145) was 14.2 ± 4.2 µM. The Stern-Volmer constant [5] was 18100 M⁻¹, the IC50 (pancreas MiaPaca2) was 8.2 ± 0.98 µM and the “solubility in DMSO:H2O mixtures” value (Solubility) was “soluble in mixtures 1:99 DMSO:H2O in micromolar concentrations”. It also gave an IC50 (lung A549) of 29.9 ± 5.8 µM, an IC50 (leukemia Jurkat-T) of 2.39 ± 0.27 µM and an IC50 [3] of 4.1 ± 0.06 µM.
For “[(η^6-p-cymene)Ru([{Cp—P(Ph2)═N—CH2-2-NC5H4}Fe(Cp)]-κ-N,N)Cl]Cl [Compound 4]”, the IC50 [1] was greater than 125 µM, the “stability in D2O (NMR spectra)” value [4] was “does not change for over three days” and the “stability in d^6-DMSO solution” value [4] was “stable for weeks”. The IC50 (prostate DU-145) was 148 ± 33 µM, the IC50 (pancreas MiaPaca2) was greater than 125 µM and the IC50 (lung A549) was greater than 125 µM. For the same compound, the IC50 (leukemia Jurkat-T) was 9.3 ± 0.07 µM, the “electrophoretic mobility” value (plasmid pBR322 DNA) was “no mobility retardation is observed” and the IC50 [3] was 114 ± 14.8 µM.
In the case of [(η^6-p-cymene)Ru(μ-Cl)Cl]2, the IC50 (human cell lines) is reported as greater than 125 µM.
In the case of “[(η^6-p-cymene)Ru{(Ph3P═N-8-C9H6N)-κ-N,N}Cl]Cl [Compound 3]”, the IC50 [1] is reported as 16.2 ± 0.9 µM, the “stability in D2O (NMR spectra)” value [4] is reported as “does not change significantly over time” and the “stability in d^6-DMSO solution” value [4] is reported as “stable for weeks”. For the same compound, the IC50 (prostate DU-145) was 6.6 ± 0.85 µM, the IC50 (pancreas MiaPaca2) was 7 ± 0.4 µM and the IC50 (lung A549) was 43.3 ± 8 µM. The “AnnexinV+ cells, compound + z-VAD-fmk” value (Jurkat cells; 24 h with compound + z-VAD-fmk, then 24 h in fresh medium after washing) was 32%, the “PS exposure with z-VAD-fmk” value (Jurkat cells; [6]) was “completely abrogated” and the “Δψm loss with z-VAD-fmk” value (Jurkat cells; [6]) was 20%. For the same compound, the Δψm loss (Jurkat cells; Jurkat cells, without z-VAD-fmk) was 40%, the “Nuclei morphology (Hoechst staining)” value (Jurkat cells; Jurkat, 24 h incubation with 1 μM solution) was “chromatin condensation and fragmentation” and the “AnnexinV+ cells, compound alone for twenty-four hours” value (Jurkat cells; compound alone, 24 h) was 28%. The IC50 (leukemia Jurkat-T) was 0.9 ± 0.32 µM, the “ruthenium content in DNA precipitate” value (CT DNA) was 2.43±0.18 and the “electrophoretic mobility” value (plasmid pBR322 DNA) was “no mobility retardation is observed”. For the same compound, the IC50 [3] was 2.2 ± 1.1 µM.
In the case of “[(η^6-p-cymene)Ru{(Ph3P═N—CO-2-N—C5H4)-κ-N,O}Cl](PF6) [Compound 1]”, the IC50 [1] is reported as 4.91 ± 2.7 µM, the “stability in d^6-DMSO solution” value [4] is reported as “stable for weeks” and the IC50 (prostate DU-145) is reported as 1.89 ± 0.64 µM. The IC50 (pancreas MiaPaca2) was 2.4 ± 0.18 µM, the IC50 (lung A549) was 9.9 ± 1.9 µM and the IC50 (leukemia Jurkat-T) was 1.1 ± 0.14 µM. The “electrophoretic mobility” value (plasmid pBR322 DNA) was “induce retardation of the mobility of the CCC form” and the IC50 [3] was 2.8 ± 0.2 µM.

From patent US9555049B2, “Arene ruthenium (II) derivatives containing iminophosphorane ligands and their use in cancer therapy” (Research Foundation of the City University of New York, priority 2014, dated 2017)
